In patent US8466160B2, “Identification of non-small cell lung carcinoma (NSCLC) tumors expressing PDGFR-alpha” (priority 2005, dated 2013):
Structures can show the parent of a compound that is named as a salt.

Assays:
[1] = system: AKT phosphorylation; experiment: Western blot of AKT phosphorylation in H1703 cells; format: cell-based, human
Procedure: (§1) Phosphorylation of the EGFR receptor, ERK and AKT were determined while total PDGFRα and ERK1/2 are included as loading controls. […] AKT is thought to be the primary driver of cell survival (see Franke, Cell 88: 435-437 (1997)).

[2] = system: A549 cell line; settings: Mol. Cancer 2003, not reproduced by the inventors; cited from earlier work
[3] = system: H1703 cell line; experiment: MTT cell proliferation assay, H1703; format: cell-based, human; settings: concentrations similar to K562 (0.1 μM)
[4] = system: AKT phosphorylation; experiment: IHC of AKT phosphorylation in xenograft tumors; format: in vivo, mice; settings: treated vs control tumors, FIG. 11
Procedure: (§2) In this model, human cell lines are injected into immune-compromised mice forming xenograft tumors that resemble human tumors including vascularization and other features found in human tumors. The mice are then administered the drug in the same manner as in human patients. Tumor size may be monitored visually during drug treatment and the tumors may be removed, fixed and analyzed by standard IHC procedures or lysed and analyzed by Western blot.

[5] = system: PDGFRα phosphorylation; experiment: Western blot of PDGFRα phosphorylation in H1703 cells; format: cell-based, human; settings: dose response, FIG. 9(b)
[6] = system: H1373 cell line; experiment: MTT cell proliferation assay, H1373; format: cell-based, human
[7] = system: PDGFRα-expressing human NSCLC tumors (H1703) xenografts; experiment: Tumor size in mouse xenografts of PDGFRα-expressing human NSCLC tumors; format: in vivo, mice
Procedure: This hypothesis was tested using mouse xenografts derived from the H1703 cell line.
as §2

[8] = system: PDGFRα phosphorylation; experiment: Western blot / IHC of PDGFRα phosphorylation in xenograft tumors; format: in vivo, mice
Procedure: as §2

[9] = system: A549 cell line; experiment: MTT cell proliferation assay, A549; format: cell-based, human
[10] = system: K562 cell line; experiment: MTT cell proliferation assay, K562; format: cell-based
[11] = system: ERK phosphorylation; experiment: Western blot of ERK phosphorylation in H1703 cells; format: cell-based, human; settings: FIG. 9(a)
Procedure: as §1

SMILES	effect on AKT phosphorylation ([1]; Western blot, FIG. 9(a))	dose that greatly inhibits AKT phosphorylation ([1]; dose response, FIG. 9(b)) [µM]	growth of A549 cell line as reported by Zhang et al. [2]	sensitivity of cell growth to Gleevec (MTT) [3]	effect on AKT phosphorylation in xenograft tumors (IHC) [4]	lowest dose that inhibits PDGFRα phosphorylation [5] [µM]	sensitivity of cell growth to Gleevec (MTT) [6]	average tumor diameter in treated mice ([7]; 3 treated mice, control approximately 190 mm)	effect on tumor size ([7]; xenograft, FIG. 10(a))	effect on PDGFRα phosphorylation in xenograft tumors (IHC) ([8]; treated vs control tumors, FIG. 11)	effect on PDGFRα phosphorylation in xenografts (Western blot) ([8]; tumor lysate, 4 treated mice vs one control)	concentration up to which cell growth was not affected (MTT) [9] [µM]	concentration at which cell line is sensitive (MTT) [10] [µM]	effect on ERK phosphorylation [11]
Cc1ccc(NC(=O)c2ccc(CN3CCN(C)CC3)cc2)cc1Nc1nccc(-c2cccnc2)n1 [Gleevec®, Imatinib mesylate]	loss of AKT phosphorylation	0.1	growth inhibition	sensitive	decrease	0.01	insensitive	approximately 20 mm	significant decrease in tumor size	decrease	inhibiting PDGFRα phosphorylation	> 10	0.1	
COc1cc2ncnc(Nc3ccc(F)c(Cl)c3)c2cc1OCCCN1CCOCC1 [Iressa™]														decreases
